The results in this text go back to patent publication US20230218717A1, “Administration of CEBP-Beta Antagonist and Methods of Use” (Sapience Therapeutics, Inc., priority 2020, published 2023).

Where no end group is shown, it is not given here.

Data set [1] has as its system HL-60 promyelocytic leukemia cells. Kind of data set: Cytotoxicity in HL-60 cells. The source says: (§1) We hypothesized that modifications designed to enhance electrostatic interactions between the peptide and C/EBPβ would increase potency. A panel of 46 rationally-designed peptides probing the molecular packing of non-leucine amino acids of the peptide antagonist with that of the C/EBPβ bZIP domain were synthesized and screened for cytotoxic activity.

The target in data set [2] is C/EBPβ (plate-bound, competitive ELISA). Kind of data set: ELISA: 3.6 ng plate-bound C/EBPβ, ATF5 in solution. (In general: An ELISA detects its analyte on a solid surface through an enzyme-linked reagent.)
Sequence of C/EBPβ (plate-bound, competitive ELISA) (P17676 whole entry): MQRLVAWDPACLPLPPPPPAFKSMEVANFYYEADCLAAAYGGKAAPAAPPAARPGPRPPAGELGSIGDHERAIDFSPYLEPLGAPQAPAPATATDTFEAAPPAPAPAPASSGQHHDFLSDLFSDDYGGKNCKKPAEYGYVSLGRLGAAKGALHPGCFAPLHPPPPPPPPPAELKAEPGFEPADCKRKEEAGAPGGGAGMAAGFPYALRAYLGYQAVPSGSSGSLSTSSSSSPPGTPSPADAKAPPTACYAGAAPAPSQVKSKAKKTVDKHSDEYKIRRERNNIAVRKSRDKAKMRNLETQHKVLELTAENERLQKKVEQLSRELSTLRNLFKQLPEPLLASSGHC
Data set [3] in a line: Cytotoxicity in HL-60 cells.
Excerpt: as §1

In another data set the target is C/EBPβ (Homo sapiens, UniProt P17676). Kind of data set: ELISA, ATF5 binding to plate-bound C/EBPβ. To be noted: 3.6 ng C/EBPβ plate-bound.
Sequence of C/EBPβ (P17676 whole entry, species assumed): as the sequence (P17676 whole entry) above

A word on the EC50: it is the concentration at which the effect is half-maximal. Read a high EC50 as a less potent agent. “22-amino acid section of native ATF5 bZIP domain, LEGECQGLEARNRELKERAESV, and a 16-amino acid penetratin domain [precursor peptide]” yielded an EC50 in data set [1] of 17.4 ± 0.5 µM.

By Kd is commonly meant the equilibrium constant for the complex coming apart. Higher therefore signals lower affinity. Molecule recombinant ATF5 returned a Kd in data set [2] of 0.001 µM.

As for “RQIKIWFQNRRMKWKKLEGRAQGLRAELRELEERAEAV [“winner” peptide]”, the “increase in potency vs. the parent peptide” value in data set [1] (HL-60 cytotoxicity EC50) is 3.2 fold. In addition, the midpoint of the response in data set [3], the EC50, lay at 5.5 ± 0.5 µM.

B1: ATF5: recombinant ATF5, activating transcription factor 5, binding partner of C/EBPβ (protein)
chain: MSLLATLGLELDRALLPASGLGWLVDYGKLPPAPAPLAPYEVLGGALEGGLPVGGEPLAGDGFSDWMTERVDFTALLPLEPPLPPGTLPQPSPTPPDLEAMASLLKKELEQMEDFFLDAPPLPPPSPPPLPPPPLPPAPSLPLSLPSFDLPQPPVLDTLDLLAIYCRNEAGQEEVGMPPLPPPQQPPPPSPPQPSRLAPYPHPATTRGDRKQKKRDQNKSAALRYRQRKRAEGEALEGECQGLEARNRELKERAESVEREIQYVKDLLIEVYKARSQRTRSC
Consider B1, for which the “Kd of ATF5 association with C/EBPβ” value in the data set with C/EBPβ was found to be 0.001 µM.
